Data from US12371662B2, “Cell-based treatment and drug discovery in Hirschsprung's disease enabled by pluripotent stem cell-derived human enteric neural crest lineages” (MEMORIAL SLOAN-KETTERING CANCER CENTER, priority 2015, dated 2025).
Where a SMILES comes first, the peptide text is derived from it. [ ]: non-standard residue; d: D form. The star is where a group is joined. Sta = CC(C)C[C@H](N)[C@@H](O)CC(=O)O; Isovaleryl = CC(C)CC(=O)*

Columns and labels:
[1] = test system: CD49D purified EDNRB−/− hESC-derived ENC; experiment: Scratch (migration) assay on EDNRB−/− ENC precursors; assay type: cell-based, human
Protocol: The ENC cells were plated on PO/LM/FN coated (prepared as described previously^38) 96 well or 48 well culture plates (30,000/cm^2). 24 hours later the culture lawn was scratched manually using a pipette tip. The cells were given an additional 24-48 hours to migrate into the scratch area and fixed for imaging and quantification. The quantification was based on the percentage of the nuclei that are located in the scratch area after the migration period. The scratch area was defined using a reference well that was fixed immediately after scratching. Migration of cells were quantified using the open source data analysis software KNIME^41 (http://knime.org) with the “Quantification in ROI” plug-in as described in detail elsewhere^42.
The chemical compound screening was performed using the Prestwick Chemical Library®. The ENC cells were plated in 96 well plates (30,000/cm^2) and scratched manually 24 hours before addition of the compounds. The cells were treated with two concentrations of the compounds (10 μM and 1 μM). The plates were fixed 24 hours later for total plate imaging. The compounds were scores based on their ability to promote filling of the scratch in 24 hours. […] The hits were further validated to ensure reproducibility. The cells were treated with various concentrations of the selected hit compound (Pepstatin A) for dose response analysis. The optimal dose (10 μM-based on optimal response and viability) was used for follow-up experiments. For the pre-treatment experiments, cells were CD49D purified at day 11 and treated with Pepstatin A from day 12 through day 15 followed by transplantation into the colon wall of NSG mice.
To inhibit BACE2, the ENC precursors were treated with 1 μM β-Secretase Inhibitor IV (CAS 797035-11-1—Calbiochem). […] The Knockdown was confirmed by qRT-PCR measurement of BACE2 mRNA levels in cells transfected with the BACE2 siRNAs vs. the control siRNA pool (ON-TARGETplus Non-targeting Pool, Dharmacon, D-001810-10-05). The transfected cells were scratched 24 hours after plating and fixed 48 hours later for migration quantification.

[2] = test system: EDNRB−/− hESC-derived ENC precursors; experiment: Colon migration after transplantation of pre-treated EDNRB−/− ENC precursors into NSG mice; assay type: in vivo, human cells in NSG mice; details: EDNRB-null precursors pre-treated for 72 hours before transplantation, 2 weeks
Protocol: All mouse procedures were performed following NIH guidelines, and were approved by the local Institutional Animal Care and Use Committee (IACUC), the Institutional Biosafety Committee (IBC) as well as the Embryonic Stem Cell Research Committee (ESCRO). 3-6 week old male NSG (NOD.Cg-Prkdc^scid Il2rg^tm1Wjl/SzJ) mice or 2-3 weeks old EDNRB^s-l/s-l (SSL/LeJ) mice^39 (n=12, 6 male, 6 female) were used for these studies. […] Animals were randomly selected for the various treatment paradigms (NSG and EDNRB^s-l/s-l) but assuring for equal distribution of male/female ratio in each group (EDNRB^s-l/s-l). Animals were anesthetized with isoflurane (1%) throughout the procedure, a small abdominal incision was made, abdominal wall musculature lifted and the cecum is exposed and exteriorized. Warm saline was used to keep the cecum moist. 20 μl of cell suspension (2-4 million RFP+CD49D purified hESC-derived ENC precursors) in 70% matrigel (BD Biosciences, 354234) in PBS or 20 μl of 70% matrigel in PBS only (control grafted animals) were slowly injected into the cecum (targeting the muscle layer) using a 27-gauge needle. […]
The harvested colon samples were fixed in 4% PFA at 4° C. overnight before imaging. Imaging was performed using Maestro fluorescence imaging system (Biotechniques). […]

[3] = test system: rodent GSK3β homologs; details: cited from earlier work

CC(C)CC(=O)N[C@H](C(=O)N[C@H](C(=O)N[C@@H](CC(C)C)[C@@H](O)CC(=O)N[C@@H](C)C(=O)N[C@@H](CC(C)C)[C@@H](O)CC(=O)O)C(C)C)C(C)C [Pepstatin A] (Isovaleryl-VV[Sta]A[Sta]-OH)
rescue of the migration defect in scratch assay ([1]; EDNRB−/− hESC derived NC precursors, range of concentrations, treatment started 24 hrs before scratching): dose-dependent, near complete rescue of the migration defect | optimal dose (based on optimal response and viability) ([1]; dose response analysis, EDNRB−/− ENC): 10 µM | rescue of in vivo migration behavior in adult colon [2]: significant rescue of the in vivo migration behavior

BACE inhibitor IV
rescue of the migration defect in scratch assay ([1]; EDNRB−/− hESC-derived ENC, 1 μM): rescued the migration defect

Cc1c[nH]c(-c2cnc(NCCNc3ccc(C#N)cn3)nc2-c2ccc(Cl)cc2Cl)n1 [CHIR99021, 6-(2-(4-(2,4-dichlorophenyl)-5-(4-methyl-1H-imidazol-2-yl)pyrimidin-2-ylamino)ethylamino)nicotinonitrile]
IC50 values against rodent GSK3β homologs [3]: nanomolar
